Like-named read-outs stand apart in the source and are kept apart here.

The values that follow come from patent US9782393B2, “Pharmaceutical compositions and methods for treating cancer and biomarkers for drug screening” (NATIONAL DEFENSE MEDICAL CENTER, priority 2013, dated 2017).

Series [1] has as its system ACHN cells. In words: Annexin V-FITC / propidium iodide flow cytometry, cell necroptosis. The following applies: 24 hours, 5 μM sorafenib, 10 μM GW5074, or both. Format: cell-based, Human. As for the experimental part: (§1) Cells were cultured as described in example 1, washed with phosphate buffered saline (PBS), and stained with annexin V-FITC and propidium iodide (PI) for 15 minutes. The presence of fluorescent Annexin V as well as propidium iodide (PI) was detected by flow cytometry so as to determine whether the cell death is caused by apoptosis or necrosis. The expression of c-Raf and DAPK as well as the phosphorylation status of DAPK were examined by Western blot and immunoprecipitation using antibodies. Anti-DAPK antibodies or non-immune rabbit IgG (IP: immunoglobulin) were included as negative controls, and cell survival was measured by SRB assay, as shown in example 1.
In general terms: Flow cytometry measures light scatter and fluorescence of single cells or particles in a stream.

In series [2] the test system is ACHN cells. As to the kind of experiment: SRB assay, growth inhibition of ACHN cells. Format: cell-based, Human. The following applies: 5 μM sorafenib, 10 μM GW5074, single or combined, 24 hours. As for the experimental part: Human renal carcinoma (ACHN) cells were cultured in Eagle MEM (Minimum Essential Medium) with 10% FBS (Fetal Bovine Serum) and 1% penicillin/streptomycin. Sulforhodamine B (SRB) is a negative […] with a sulfonic acid group and binds to basic amino acids of intracellular proteins in weak acidic conditions. The SRB […] was extracted from cells using weak alkaline solution and then subjected to absorbance measurement. The amount of intracellular proteins, which is an indicator for cell survival, can be calculated from the amount of SRB. ACHN or A498 cells were treated singularly with 2.5 μM sorafenib, 5 μM sorafenib, 10 μM sorafenib, GW5074, L779450 or PLX4720 for 24, 48 and 72 hours, followed by SRB assay to assess cell survival. Alternatively, ACHN cells were pre-treated with 10 μM GW5074, 10 μM L779450 or 10 μM PLX4720 for 30 minutes prior to 5 μM sorafenib treatment for additional 24, 48 and 72 hours, followed by SRB assay to assess growth inhibition.
(In SRB staining, fixed cells bind dye roughly in proportion to their protein.)

For series [3], the system named is ACHN cells. As to the kind of experiment: ACHN xenograft in immunodeficient mice, tumor volume. Format: in vivo. The settings on record: printed as 5 μM sorafenib, 10 μM GW5074, separate or combined; once a day for three weeks; n=8. As for the experimental part:
Six-week old immnunodeficient male mice (BALB/cAnN.Cg-Foxn1^nu/CrlNarl) with an average weight of 20 grams were xenografted with 1×10^7 ACHN cells to the right by […]. The mice were maintained in a specific pathogen-free (SPF) environment. The size of tumor was measured using a digital caliper twice a week and tumor volume was calculated by the equation of length*width*height*0.5. […] A total of four groups were included in the experiment: a control group which received only vehicle (DMSO), […], 25 mg/kg GW5074, […], respectively, with 8 mice in each group.

A further series has as its system pDAPK^S308. Format: cell-based, Human. The settings on record: ACHN cells; PP2A inhibitor, various concentrations, provided 30 minutes prior to the combination drugs. As for the experimental part:
as §1, with “1. In this experiment, ACHN cells were treated separately with DMSO (as a control group), 5 μM sorafenib, 10 μM GW5074, or combination therapy of 5 μM sorafenib and 10 μM GW5074 for 24 hours.” for “1.”

The mark [4] stands for this setting: 10 mg/kg sorafenib, 25 mg/kg GW5074, or both.

Experimental for Luc-ACHN-LL cells: Immunodeficient male mice was injected with 3×10^5 Luc-ACHN-LL cells in 50 μL PBS at the right renal capsule. In vivo luciferase activity was examined every day for up to three weeks so as to assure no leakage of cancer cells at the kidneys immediately after injection and to monitor metastasis of these cancer cells. Two to five minutes before utilizing the IVIS Xenogene system, 75 mg/kg D-Luciferin (Xenogen) in PBS was injected to the retro-orbital sinus of each mouse. Two weeks after injection of Luc-ACHN-LL cells, IVIS Xenogene system was used to monitor transfer of biological fluorescent images and to calculate the intensities of the photon signals (photons/s/cm^2/steradian). A total of five groups were included in the study: a control group which received only vehicle, and four test groups which respectively received 10 mg/kg sorafenib, 25 mg/kg GW5074, a combination therapy of 10 mg/kg sorafenib and 25 mg/kg GW5074 (the animals were fed with Sor 30 min post i.p. injection of GW), or 60 mg/kg sorafenib.

In the case of `CNC(=O)c1cc(Oc2ccc(NC(=O)Nc3ccc(Cl)c(C(F)(F)F)c3)cc2)ccn1` [sorafenib], the “death within weeks following injection of cancer cells (survival)” value was no more than 8 weeks with Luc-ACHN-LL cells (setting [4]) and no more than 10 weeks with Luc-ACHN-LL cells (high-dose 60 mg/kg sorafenib). In the series with Luc-ACHN-LL cells (mouse, in vivo, 60 mg/kg), the body weight entry is recorded as “loss of weight”. Also, the “average cell necroptosis rate” value in the series with ACHN cells [1] is 0.77%. Moreover, the “growth inhibition of cells” value with ACHN cells [2] is listed as “no growth inhibition”. For the same compound, in the series on ACHN cells [3], the “xenografted tumor volume, inhibition effect” value is recorded as “nearly no inhibition effect”.

In the case of `C=C1[C@@H](O)[C@@H]2O[C@]3(CC[C@H](/C=C/[C@@H](C)[C@@H]4CC(C)=C[C@@]5(O[C@H](C[C@@](C)(O)C(=O)O)CC[C@H]5O)O4)O3)CC[C@H]2O[C@@H]1[C@@H](O)C[C@H](C)[C@H]1O[C@@]2(CCCCO2)CC[C@H]1C` [Okadaic acid], in the series with pDAPK^S308, the “inhibition of dephosphorylation of pDAPK^S308 under combination therapy” value is reported as “effective in inhibition of dephosphorylation of pDAPK^S308”.

On to `O=C1Nc2ccc(I)cc2/C1=C/c1cc(Br)c(O)c(Br)c1` [GW5074, 3-(3,5-Dibromo-4-hydroxy-benzylidene)-5-iodo-1,3-dihydro-indol-2-one], for which the “death within weeks following injection of cancer cells (survival)” value in the series with Luc-ACHN-LL cells (setting [4]) was no more than 5 weeks. Further, the “average cell necroptosis rate” value in the series on ACHN cells [1] is 1.35%. Moreover, the “growth inhibition of cells” value in the series on ACHN cells [2] is reported as “no growth inhibition”. Also, the “xenografted tumor volume, inhibition effect” value with ACHN cells [3] is “nearly no inhibition effect”.
